The structures appear in SMILES notation. Structures can show the parent of a compound that is named as a salt.

The source of these data is patent US20240270719A1, “CRYSTALLINE FORMS OF 2-(4-(4-(AMINOMETHYL)-1-OXO-1,2-DIHYDROPHTHALAZIN-6-YL)-1-METHYL-1H-PYRAZOL-5-YL)-4-CHLORO-6-CYCLOPROPOXY-3-FLUOROBENZONITRILE” (Mirati Therapeutics, Inc., priority 2023, published 2024).

The nature of data set [1]: Relative stability of hydrate forms, competitive slurry experiments in IPA/water systems. The format is physicochemical. From the text: The relative stability between free base Form A, Form B, and Form D was investigated by conducting competitive slurry experiments in isopropyl alcohol (IPA)/water systems at room temperature. […] Further addition of Form A to the experiments verified the result. In systems with αw≥0.37, only Form A was observed after 1 day of stirring at room temperature. Further addition of Form B and Form D to the experiment confirmed the outcome.

The nature of data set [2]: Pharmacokinetics after oral capsule administration to dogs pre-treated with pentagastrin or famotidine. The format is in vivo, male beagle dogs. The conditions noted are these: 100 mg/dog, particle size normalized. Here is the method: The substances were filled into Empty HPMC Capsules after correcting for potency and administered to dogs pre-treated with either pentagastrin or famotidine along with 40 mL of water. Pentagastrin enhances gastric secretions whereas famotidine neutralizes gastric sections. Therefore, pentagastrin and famotidine pre-treatments were used to simulate the impact of gastric pH on bioavailability and reduce the variability in gastric pH between dogs.
Plasma samples were collected at pre-defined intervals and analyzed for the concentration of Compound 1. The plasma concentration versus time data was analyzed by non-compartmental approaches using Win Nonlin software program to estimate PK parameters such as Cmax, Tmax, AUC0-t and AUC0-inf.

Data set [3] can be described thus: Intrinsic dissolution rate and drug in capsule dissolution in FaSSGF and FaSSIF. It is filed as physicochemical. The protocol: The IDR rate was calculated using the slope of the linear curve divided by the surface area of tablet (0.5 cm^2). […] 0.6 mL liquid was removed with a syringe at each time point and filtered. The concentration of filtrates was analyzed by HPLC.

Data set [4] in a line: Compressibility, tabletability, compatibility and physical stability under compaction. It is filed as physicochemical. The protocol: The compressibility (i.e., porosity vs compaction pressure), tabletability (i.e., tensile strength vs compaction pressure), and compatibility (i.e. tensile strength vs porosity) of Free Base Form A of Compound 1 was measured.
Data set [5] is described as follows: Excipient compatibility, total impurity content of binary mixtures by HPLC. The format is physicochemical. The conditions noted are these: 40° C./75% RH, 8 weeks; for Compatibility with excipients (total impurity content): binary mixtures, open condition; for Risk of chemical stability: with excipients. The source says:
Binary mixtures of samples were created by mixing the substance and the excipients (1:10 Compound to Excipients for fillers and 1:1 for all other excipients) using a mortar and pestle and the resultant mixture was accurately weighed and transferred into sample vials. The excipients used were as follows: colloidal silicon dioxide 200, croscarmellose sodium, crosprovidone XL-10, dibasic calcium phosphate (an), hydroxypropyl cellulose, lactose monohydrate, magnesium stearate, mannitol 100SD, MCC PH102, Opadry™ 11, povidone K-30, pregelatinized starch 1500, sodium starch glycolate, and sodium stearyl fumarate. The sample vials were set down at 40° C./75% RH condition for 8 weeks in open condition before analyzing their impurity levels using HPLC.

For the compound `Cn1ncc(-c2ccc3c(=O)[nH]nc(CN)c3c2)c1-c1c(F)c(Cl)cc(OC2CC2)c1C#N` [Form B, 2-(4-(4-(aminomethyl)-1-oxo-1,2-dihydrophthalazin-6-yl)-1-methyl-1H-pyrazol-5-yl)-4-chloro-6-cyclopropoxy-3-fluorobenzonitrile], in data set [1] (αw=0.13, compared with higher water activities), the “Conversion rate in competitive slurry” value is listed as “slightly slower than those at higher water activities”. For the same compound, the “Form conversion in competitive slurry” value in data set [1] (αw=0.13, room temperature) is “converted to Form A eventually”.

In the case of `Cn1ncc(-c2ccc3c(=O)[nH]nc(CN)c3c2)c1-c1c(F)c(Cl)cc(OC2CC2)c1C#N` [Free Base Form A, 2-(4-(4-(aminomethyl)-1-oxo-1,2-dihydrophthalazin-6-yl)-1-methyl-1H-pyrazol-5-yl)-4-chloro-6-cyclopropoxy-3-fluorobenzonitrile], the “Exposure (plasma AUC) compared with HCl salt” value in data set [2] was “equivalent exposure to HCl salt”. For the same compound, the “Dissolution in gastric media” value in data set [3] (37° C., 50 rpm) is listed as “faster dissolution in gastric media”. For the same compound, the “Supersaturation in intestinal fluid” value in data set [3] (pH shifted from gastric to intestinal after 30 minutes) is recorded as “able to maintain super saturation in intestinal fluid”. In addition, in data set [4], the “Compatibility (tensile strength vs porosity)” value is reported as “good”, the “Compressibility (porosity vs compaction pressure)” value is given as “good” and the “Tabletability (tensile strength vs compaction pressure)” value was “good”. In addition, the “Loss of crystallinity (XRPD before and after compression)” value in data set [4] (high compaction pressures) is “No apparent loss of crystallinity”. In data set [5], the “Compatibility with excipients (total impurity content)” value is reported as “good compatibility with excipients”. Also, the “Sensitivity to individual excipients (total impurity content)” value in data set [5] (colloidal silicon dioxide and lactose monohydrate, open) was “more sensitive to colloidal silicon dioxide and lactose monohydrate than HCl Form B”. For the same compound, the “Risk of chemical stability” value in data set [5] (open) is “slightly higher”.

On to `Cn1ncc(-c2ccc3c(=O)[nH]nc(CN)c3c2)c1-c1c(F)c(Cl)cc(OC2CC2)c1C#N` [HCl Form B], for which the “Dissolution in gastric media” value in data set [3] (37° C., 50 rpm) is “common ion effect slowing dissolution”. Also, the “Dissolution rate in intestinal media” value in data set [3] (intestinal media, 37° C., 50 rpm) was “slightly faster dissolution rate than Free Base Form A”. Besides, the “Compatibility with excipients (total impurity content)” value in data set [5] is given as “good compatibility with excipients”. Also, the “Risk of chemical stability” value in data set [5] (open) was “slightly higher”.
